Here are results for two compounds from publication PMC12579162, “Synthesized Depside Molecules Suppress the Progression of Colorectal Cancer by Binding VDAC1/PHB/MMP9 Being at the Crossroads of Stemness, Motility, Apoptosis, and Metabolism” (MedComm, 2025).

For orientation: IC50 means the concentration needed to halve the response being measured. Higher therefore signals weaker potency in that assay.

Assay [1] deals with CaCo2, DLD1, HT29, HCT116, and SW620 cells. As to the kind of experiment: Cell cycle analysis by flow cytometry. The format is cell-based, human. The conditions noted are these: 10 µM, 48 h. Here is the method: Cells were cultured in a six‐well plate at the density of 2 × 10^5 cells/well until adherence. Cells were treated with DMSO or compound for 48 h. Apoptosis or cell cycle experiments were then performed. For apoptosis analysis, cells were harvested and washed with PBS, resuspended in 100 µL of 1× binding buffer followed by staining with 4 µL of Annexin V–FITC (BD, Biosciences, San Jose, CA, USA), and 8 µL of 50 µg/mL propidium iodide (PI; BD Biosciences, San Jose, CA, USA) for 30 min in the dark. For cell cycle analysis, cells were washed with FACS washing buffer, incubated with trypsin solution, followed by RNase A for 10 min at room temperature. Cells were centrifuged and pellets were collected and stained with 100 µL of 4 mg/mL PI (Sigma–Aldrich) for 2 h in the dark at 4°C. Cells were detected by flow cytometry on a CytoFLEX instrument (Beckman Coulter Life Sciences, Indianapolis, IN, USA).
Background: Flow cytometry measures light scatter and fluorescence of single cells or particles in a stream.

A further assay relates to HaCaT cells. Kind of assay: MTT cell viability, HaCaT. The format is cell-based. As to conditions: Homo sapiens, 48 h, MTT assay. Here is the method:
(§1) Cells (3 × 10^3 cells/well) were seeded on a 96‐well plate, grown overnight, and then treated with compounds at indicated concentrations for 48 h. After incubation with MTT for 4 h at 37°C, cells were lysed with 150 µL of DMSO (Sigma–Aldrich, St. Louis, USA). Absorbance was measured at 570 nm on a microplate reader with the Gen5 software (v.2.03.1; BioTek, Winooski, VT, USA).
On the technique in general: Formazan colour is commonly taken as a measure of viable cells.

The test system of another assay is SW620 cells. Kind of assay: MTT cell viability, SW620. The conditions noted are these: Homo sapiens, SW-620; 48 h, MTT assay. The format is cell-based. The protocol:
as §1

The next assay concerns CRC cells. Kind of assay: Transwell invasion assay. The format is cell-based, human. As to conditions: 5 µM, 24 h, versus vehicle-treated control.
The test system of a further assay is MCF10A cells. Kind of assay: Spheroid formation assay, MCF10A. Format: cell-based, human. The conditions noted are these: noncancerous MCF10A, 10–14 days. Here is the method:
Monolayer cells were separated into single‐cell suspensions at around 70% confluence using a solution of trypsin. After that, the cells were added to N2‐supplemented DMEM/F12 that contained human basal fibroblast growth factor and human recombinant epidermal growth factor. Cells seeded at a density of 5 × 10^3 cells/well in ultra‐low attachment 24‐well plates (Corning Inc., Corning, NY, USA). After 10–14 days of culture, spheres were quantitated by inverted phase contrast microscopy. The relative sphere formation ability was calculated through the IMT iSolution software (IMT iSolution Inc., Northampton, NJ, USA) measuring the pixel intensity of the sphere area randomly in each plate.

For `COCCCOc1c(C)c(OC(=O)c2c(C)cc(OC)c(C)c2OC)cc(C)c1C(=O)OC` [SB5, 4-(Methoxycarbonyl)-3-(3-methoxypropoxy)-2,5-dimethylphenyl 2,4-dimethoxy-3,6-dimethylbenzoate], the cell-cycle distribution entry in assay [1] is “induced Sub G1 and G2/M populations while G1 population decreased”. Further, the results for the IC50 in the assay with HaCaT cells and in the assay with SW620 cells were 70.7 µM and 2.27 µM, respectively. Moreover, the “number of invaded cells” value in the assay on CRC cells was “significantly reduced the number of invaded cells”. Moreover, in the assay on MCF10A cells, the spheroid formation entry is reported as “did not change the inhibition or induction of spheroid formation in a statistically significant way”.
For the compound `COCCOc1c(C)c(OC(=O)c2c(C)cc(OC)c(C)c2OC)cc(C)c1C(=O)OC` [SB4, 4-(Methoxycarbonyl)-3-(2-methoxyethoxy)-2,5-dimethylphenyl 2,4-dimethoxy-3,6-dimethylbenzoate], the cell-cycle distribution entry in assay [1] was “induced Sub G1 and G2/M populations while G1 population decreased”. Also, the IC50 in the assay on HaCaT cells is 26.7 µM; with SW620 cells it was 5.33 µM. In addition, the “number of invaded cells” value with CRC cells is “significantly reduced the number of invaded cells”. Besides, in the assay with MCF10A cells, the spheroid formation entry is on record as “did not change the inhibition or induction of spheroid formation in a statistically significant way”.
